The record followed here is patent US20080255192A1, “Methods and Compositions for Selectin Inhibition” (Wyeth, priority 2007, published 2008).

For the assay, the target named is T1, P-selectin/PSGL-1 interaction (Homo sapiens, UniProt P16109).
T1 construct: comprised of the lectin and epidermal growth factor-like (EGF) domains expressed in CHO cells; made in house; host or cells: CHO cells (P-LE)
T1 sequence (P16109 42-198): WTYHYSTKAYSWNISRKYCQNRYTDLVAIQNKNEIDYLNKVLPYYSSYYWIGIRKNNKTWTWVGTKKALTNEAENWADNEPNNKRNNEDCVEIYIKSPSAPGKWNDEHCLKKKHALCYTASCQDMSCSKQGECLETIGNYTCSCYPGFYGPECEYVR
In words: Biacore P-Selectin/PSGL-1 Inhibition Assay (surface plasmon resonance). The assay is classed as binding. The settings on record: 250 uM test compound, 500 nM P.LE, immobilized PSGL-1 19ek, 10% DMSO, pH 7.4. An outline of the steps:
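Biotinylated monomeric human PSGL-1 "19ek" on streptavidin chip (600–700 RU); compounds preincubated 1 h, then mixed with 500 nM P-LE (lectin-EGF, CHO-expressed) at 250 or 500 μM compound, 10% DMSO, HEPES buffer with 1 mM CaCl2/MgCl2, pH 7.4. SPR at 25 °C; percent binding inhibition from double-referenced signals.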
(In general: SPR reads the build-up and loss of mass on a sensor chip optically.)
Turning to `CC(C)c1cccc2c(C(=O)O)c(O)c(C(C)(C)c3ccccc3)nc12` [Compound 116, 3-hydroxy-8-isopropyl-2-(2-phenylpropan-2-yl)quinoline-4-carboxylic acid], the inhibition at 250 µM amounted to 68%.

`O=C(O)c1c(O)c(C2(c3ccccc3)CC2)nc2c(C(F)(F)F)cccc12` [Compound 34, 3-hydroxy-2-(1-phenylcyclopropyl)-8-(trifluoromethyl)quinoline-4-carboxylic acid] showed an inhibition at 250 µM of 44%.

In turn, `O=C(O)c1c(O)c(C2(c3ccccc3)CC2)nc2ccc(C(F)(F)F)cc12` [Compound 32, 3-hydroxy-2-(1-phenylcyclopropyl)-6-(trifluoromethyl)quinoline-4-carboxylic acid] registered an inhibition at 250 µM of at most 10%.

As to `Cc1cc(C)c2nc(C3(c4ccc(F)cc4)CC3)c(O)c(C(=O)O)c2c1` [Compound 69, 2-(1-(4-fluorophenyl)cyclopropyl)-3-hydroxy-6,8-dimethylquinoline-4-carboxylic acid], 250 µM produced 11% inhibition.

As to `O=C(O)c1c(O)c(C2(c3ccc(C(F)(F)F)cc3)CC2)nc2ccc(OC(F)(F)F)cc12` [Compound 90, 3-hydroxy-6-(trifluoromethoxy)-2-(1-(4-(trifluoromethyl)phenyl)cyclopropyl)quinoline-4-carboxylic acid], testing at 250 µM gave an inhibition of 47%.

As for `COc1ccc2nc(C3(c4ccc(Cl)cc4)CC3)c(O)c(C(=O)O)c2c1` [Compound 20, 2-(1-(4-chlorophenyl)cyclopropyl)-3-hydroxy-6-methoxyquinoline-4-carboxylic acid], the inhibition at 250 µM was at most 10%.

`COc1ccc(C2(c3nc4c(C(F)(F)F)cccc4c(C(=O)O)c3O)CC2)cc1` [Compound 50, 3-hydroxy-2-(1-(4-methoxyphenyl)cyclopropyl)-8-(trifluoromethyl)quinoline-4-carboxylic acid] came in with an inhibition at 250 µM of 36%.

The molecule `CC(c1ccccc1)c1nc2c3c(ccc2c(C(=O)O)c1O)CCCC3` (stereo not drawn) [Compound 125, 3-Hydroxy-2-(1-phenylethyl)-7,8,9,10-tetrahydrobenzo[h]quinoline-4-carboxylic acid] showed an inhibition at 250 µM of 90%.

In the case of `CC(C)(c1ccccc1)c1nc2c3c(ccc2c(C(=O)O)c1O)CCCC3` [Compound 114, 3-hydroxy-2-(2-phenylpropan-2-yl)-7,8,9,10-tetrahydrobenzo[h]quinoline-4-carboxylic acid], the inhibition at 250 µM was determined as 69%.

`CCc1ccc2c(C(=O)O)c(O)c(C3(c4ccc(C(F)(F)F)cc4)CC3)nc2c1` [Compound 89, 7-ethyl-3-hydroxy-2-(1-(4-(trifluoromethyl)phenyl)cyclopropyl)quinoline-4-carboxylic acid] had an inhibition at 250 µM of 10%.

Regarding `Cc1ccc2c(C(=O)O)c(O)c(C(C)(C)c3ccccc3)nc2c1C` [Compound 115, 3-hydroxy-7,8-dimethyl-2-(2-phenylpropan-2-yl)quinoline-4-carboxylic acid], the inhibition at 250 µM was determined as 60%.

In turn, `CCc1ccc2nc(C3(c4ccc(F)cc4)CC3)c(O)c(C(=O)O)c2c1` [Compound 70, 6-ethyl-2-(1-(4-fluorophenyl)cyclopropyl)-3-hydroxyquinoline-4-carboxylic acid] yielded an inhibition at 250 µM of 10%.

Consider `O=C(O)c1c(O)c(C2(c3ccccc3C(F)(F)F)CC2)nc2c(C(F)(F)F)cccc12` [Compound 63, 3-hydroxy-8-(trifluoromethyl)-2-(1-(2-(trifluoromethyl)phenyl)cyclopropyl)quinoline-4-carboxylic acid], for which testing at 250 µM gave an inhibition of 17%.

In turn, `O=C(O)c1c(O)c(C2(c3ccc(C(F)(F)F)cc3)CC2)nc2c3c(ccc12)CCCC3` [Compound 93, 3-hydroxy-2-(1-(4-(trifluoromethyl)phenyl)cyclopropyl)-7,8,9,10-tetrahydrobenzo[h]quinoline-4-carboxylic acid] registered an inhibition at 250 µM of 33%.

`CC(C)(C)c1cccc2c(C(=O)O)c(O)c(C3(c4ccc(Cl)cc4)CC3)nc12` [Compound 4, 8-tert-butyl-2-(1-(4-chlorophenyl)cyclopropyl)-3-hydroxyquinoline-4-carboxylic acid] returned an inhibition at 250 µM of at most 10%.

Usually inhibition stands for how much of the control response was suppressed.
